In ChEMBL document CHEMBL1137510, “Discovery of potent T-type calcium channel blocker” (Bioorg Med Chem Lett, 2007):

Key:
Assay type in all cases: cell-based
[1] = molecular target: Voltage-dependent N-type calcium channel subunit alpha-1B (Homo sapiens) (UniProt Q00975); assay: Inhibition of N-type calcium channel […] alpha-1B subunit expressed in HEK293 cells assessed as calcium current at 10 uM by patch-clamp assay
[2] = molecular target: Voltage-dependent T-type calcium channel subunit alpha-1G (Homo sapiens) (UniProt O43497); assay: Inhibition of T-type calcium channel Cav3.1 alpha-1G subunit expressed in HEK293 cells assessed as calcium current at 10 uM by patch-clamp assay
Chain of Voltage-dependent T-type calcium channel subunit alpha-1G (Homo sapiens) (O43497 whole entry): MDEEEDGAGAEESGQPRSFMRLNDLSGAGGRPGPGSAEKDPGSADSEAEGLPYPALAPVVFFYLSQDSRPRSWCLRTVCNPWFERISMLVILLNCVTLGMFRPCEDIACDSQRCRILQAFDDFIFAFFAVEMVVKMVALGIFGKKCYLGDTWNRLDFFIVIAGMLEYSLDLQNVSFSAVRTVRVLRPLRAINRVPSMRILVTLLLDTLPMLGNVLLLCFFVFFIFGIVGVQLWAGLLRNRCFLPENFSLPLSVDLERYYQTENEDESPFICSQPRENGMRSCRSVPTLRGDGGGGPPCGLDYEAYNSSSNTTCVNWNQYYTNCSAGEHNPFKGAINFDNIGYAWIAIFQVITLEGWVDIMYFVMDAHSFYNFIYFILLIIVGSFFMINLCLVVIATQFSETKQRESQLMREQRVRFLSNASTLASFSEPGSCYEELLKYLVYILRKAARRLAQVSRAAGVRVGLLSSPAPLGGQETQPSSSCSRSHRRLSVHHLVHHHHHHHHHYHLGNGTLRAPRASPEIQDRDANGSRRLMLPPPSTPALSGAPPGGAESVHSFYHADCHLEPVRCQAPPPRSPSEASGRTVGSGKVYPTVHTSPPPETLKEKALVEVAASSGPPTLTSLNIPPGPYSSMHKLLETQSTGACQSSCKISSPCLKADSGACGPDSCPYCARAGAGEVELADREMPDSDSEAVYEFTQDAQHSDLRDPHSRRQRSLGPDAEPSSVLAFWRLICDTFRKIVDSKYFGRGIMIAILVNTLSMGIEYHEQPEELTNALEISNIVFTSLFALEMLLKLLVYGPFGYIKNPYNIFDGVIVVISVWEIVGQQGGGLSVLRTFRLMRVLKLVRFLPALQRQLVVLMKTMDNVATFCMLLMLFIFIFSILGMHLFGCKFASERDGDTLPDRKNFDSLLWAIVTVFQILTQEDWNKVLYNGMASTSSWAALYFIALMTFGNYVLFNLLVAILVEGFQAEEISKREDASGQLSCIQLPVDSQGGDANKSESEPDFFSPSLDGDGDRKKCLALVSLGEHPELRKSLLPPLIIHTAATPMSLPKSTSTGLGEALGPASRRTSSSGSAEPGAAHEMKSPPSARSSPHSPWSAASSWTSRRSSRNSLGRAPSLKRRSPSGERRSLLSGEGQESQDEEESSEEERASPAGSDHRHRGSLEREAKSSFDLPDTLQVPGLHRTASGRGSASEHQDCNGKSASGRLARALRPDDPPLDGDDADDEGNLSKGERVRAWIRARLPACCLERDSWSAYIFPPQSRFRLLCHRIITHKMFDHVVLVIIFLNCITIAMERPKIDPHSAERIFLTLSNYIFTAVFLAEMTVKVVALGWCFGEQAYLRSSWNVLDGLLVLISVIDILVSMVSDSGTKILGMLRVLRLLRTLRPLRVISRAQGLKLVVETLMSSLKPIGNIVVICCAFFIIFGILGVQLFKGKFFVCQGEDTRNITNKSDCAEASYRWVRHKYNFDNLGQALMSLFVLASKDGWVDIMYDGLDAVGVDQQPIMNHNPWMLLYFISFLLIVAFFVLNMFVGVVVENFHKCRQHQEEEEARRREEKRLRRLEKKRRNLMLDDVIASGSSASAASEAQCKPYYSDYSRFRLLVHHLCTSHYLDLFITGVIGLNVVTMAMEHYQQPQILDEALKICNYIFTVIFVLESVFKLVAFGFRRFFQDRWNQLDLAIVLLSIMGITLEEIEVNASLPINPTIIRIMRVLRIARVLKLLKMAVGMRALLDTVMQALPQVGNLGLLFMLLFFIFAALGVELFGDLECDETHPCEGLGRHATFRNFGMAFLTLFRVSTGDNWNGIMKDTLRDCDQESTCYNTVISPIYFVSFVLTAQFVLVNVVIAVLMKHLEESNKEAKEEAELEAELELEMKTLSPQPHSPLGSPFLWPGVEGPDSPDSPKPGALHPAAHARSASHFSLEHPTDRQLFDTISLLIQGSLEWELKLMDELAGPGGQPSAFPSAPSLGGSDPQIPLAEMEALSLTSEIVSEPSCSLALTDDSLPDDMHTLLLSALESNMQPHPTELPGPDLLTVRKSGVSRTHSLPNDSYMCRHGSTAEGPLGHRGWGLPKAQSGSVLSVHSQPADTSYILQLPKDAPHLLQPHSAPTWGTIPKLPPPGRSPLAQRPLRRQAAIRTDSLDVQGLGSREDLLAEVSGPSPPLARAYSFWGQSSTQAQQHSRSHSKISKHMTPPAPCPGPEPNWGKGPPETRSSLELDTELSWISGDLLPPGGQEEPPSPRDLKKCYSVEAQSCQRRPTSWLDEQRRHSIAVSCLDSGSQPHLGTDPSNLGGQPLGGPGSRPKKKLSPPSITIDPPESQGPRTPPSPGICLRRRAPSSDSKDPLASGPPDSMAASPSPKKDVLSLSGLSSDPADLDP

HEK293 [3] = assay: Selectivity for Alpha-1B N-type calcium channel over alpha-1G T-type calcium channel expressed in HEK293 cells at 10 uM; conditions: Homo sapiens
[4] = molecular target: Voltage-dependent T-type calcium channel subunit alpha-1G (Homo sapiens) (UniProt O43497); assay: Inhibition of T-type calcium channel Cav3.1 alpha-1G subunit expressed in HEK293 cells assessed as calcium current at 10 uM by high throughput screening
HEK293 [5] = assay: Selectivity for alpha-1B N-type calcium channel over alpha1G T-type calcium channel expressed in HEK293 cells; conditions: Homo sapiens

Chain of Voltage-dependent N-type calcium channel subunit alpha-1B (Homo sapiens) (Q00975 whole entry, looked up): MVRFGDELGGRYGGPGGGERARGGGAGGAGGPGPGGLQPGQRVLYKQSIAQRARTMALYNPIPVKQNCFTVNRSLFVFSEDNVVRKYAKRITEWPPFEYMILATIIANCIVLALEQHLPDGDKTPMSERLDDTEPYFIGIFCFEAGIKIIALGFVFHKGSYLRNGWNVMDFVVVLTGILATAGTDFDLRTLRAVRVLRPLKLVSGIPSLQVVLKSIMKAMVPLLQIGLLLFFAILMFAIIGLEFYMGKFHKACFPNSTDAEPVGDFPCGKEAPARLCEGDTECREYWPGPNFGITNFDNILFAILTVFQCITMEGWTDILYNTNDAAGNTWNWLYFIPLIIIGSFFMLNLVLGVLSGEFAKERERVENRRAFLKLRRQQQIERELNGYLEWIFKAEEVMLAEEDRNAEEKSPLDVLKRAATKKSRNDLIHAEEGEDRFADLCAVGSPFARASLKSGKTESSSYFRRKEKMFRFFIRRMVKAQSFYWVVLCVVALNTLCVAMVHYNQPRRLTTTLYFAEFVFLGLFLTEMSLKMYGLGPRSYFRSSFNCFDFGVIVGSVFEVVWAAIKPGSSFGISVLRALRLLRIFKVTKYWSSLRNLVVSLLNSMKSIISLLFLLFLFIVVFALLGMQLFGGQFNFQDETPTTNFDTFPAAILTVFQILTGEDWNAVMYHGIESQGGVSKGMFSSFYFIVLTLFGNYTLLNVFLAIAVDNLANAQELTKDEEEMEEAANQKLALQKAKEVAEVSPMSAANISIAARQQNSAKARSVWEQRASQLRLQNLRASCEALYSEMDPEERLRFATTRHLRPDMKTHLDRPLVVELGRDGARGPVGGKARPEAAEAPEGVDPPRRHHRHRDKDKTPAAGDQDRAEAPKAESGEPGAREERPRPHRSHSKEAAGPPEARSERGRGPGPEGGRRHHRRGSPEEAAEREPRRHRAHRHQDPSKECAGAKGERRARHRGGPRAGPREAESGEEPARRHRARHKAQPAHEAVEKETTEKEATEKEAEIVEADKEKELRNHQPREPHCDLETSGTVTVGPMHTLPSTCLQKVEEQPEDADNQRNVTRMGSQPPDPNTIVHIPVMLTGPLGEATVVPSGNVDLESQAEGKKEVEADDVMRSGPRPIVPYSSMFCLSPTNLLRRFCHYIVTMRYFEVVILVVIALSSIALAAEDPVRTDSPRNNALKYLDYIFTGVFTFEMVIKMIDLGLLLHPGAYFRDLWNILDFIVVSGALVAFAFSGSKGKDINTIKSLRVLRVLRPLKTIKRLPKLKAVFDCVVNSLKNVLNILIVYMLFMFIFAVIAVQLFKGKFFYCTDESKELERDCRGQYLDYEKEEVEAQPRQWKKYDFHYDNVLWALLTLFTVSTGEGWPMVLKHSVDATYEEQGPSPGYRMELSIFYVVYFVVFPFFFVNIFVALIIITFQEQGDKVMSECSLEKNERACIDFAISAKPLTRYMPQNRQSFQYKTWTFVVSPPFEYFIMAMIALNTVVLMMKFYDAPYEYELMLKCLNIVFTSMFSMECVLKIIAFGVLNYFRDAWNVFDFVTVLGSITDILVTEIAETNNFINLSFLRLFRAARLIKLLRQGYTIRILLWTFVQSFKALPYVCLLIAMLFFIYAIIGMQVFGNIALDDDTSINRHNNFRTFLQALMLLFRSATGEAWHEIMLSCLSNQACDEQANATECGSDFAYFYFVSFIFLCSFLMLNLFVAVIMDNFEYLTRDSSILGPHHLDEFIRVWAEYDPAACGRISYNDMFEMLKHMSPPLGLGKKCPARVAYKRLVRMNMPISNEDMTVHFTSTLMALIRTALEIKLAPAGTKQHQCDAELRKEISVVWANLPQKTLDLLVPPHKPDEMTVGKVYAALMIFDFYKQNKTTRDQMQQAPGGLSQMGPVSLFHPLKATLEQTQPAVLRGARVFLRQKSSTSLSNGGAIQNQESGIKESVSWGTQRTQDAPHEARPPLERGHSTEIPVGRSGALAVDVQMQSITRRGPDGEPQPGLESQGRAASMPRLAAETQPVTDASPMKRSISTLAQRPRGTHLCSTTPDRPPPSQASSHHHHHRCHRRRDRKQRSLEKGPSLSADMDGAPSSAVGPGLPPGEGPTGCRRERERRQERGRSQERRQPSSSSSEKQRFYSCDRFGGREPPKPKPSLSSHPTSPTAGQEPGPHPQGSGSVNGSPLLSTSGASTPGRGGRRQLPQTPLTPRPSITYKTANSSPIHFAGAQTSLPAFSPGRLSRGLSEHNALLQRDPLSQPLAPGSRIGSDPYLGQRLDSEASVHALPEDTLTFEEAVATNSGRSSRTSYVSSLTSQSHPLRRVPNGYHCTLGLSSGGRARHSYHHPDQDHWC

CN(C)CCCCCN(C)C1=Nc2ccccc2C(CC(=O)NCc2ccccc2)N1c1ccc(-c2ccccc2)cc1 (stereo not drawn)
inhibition [1]: 70.6% | inhibition [2]: 98% | Selectivity ratio (HEK293 [3]): 1.4 | inhibition [4]: 42.9% | Ratio IC50 (HEK293 [5]): 120

O=C(CC1c2ccccc2N=C(N2CCCCC2)N1c1ccccc1)NCc1ccccc1 (stereo not drawn)
inhibition [1]: 28.1% | Selectivity ratio (HEK293 [3]): 3.2

COC(=O)CC1c2ccccc2N=C(N(C)CCCCCN(C)C)N1c1ccc(-c2ccccc2)cc1 (stereo not drawn)
inhibition [1]: 24.4% | inhibition [2]: 90.1% | Selectivity ratio (HEK293 [3]): 3.7 | inhibition [4]: 57.9%

COC(=O)CC1c2ccccc2N=C(NCCCCCN)N1c1ccc(-c2ccccc2)cc1 (stereo not drawn)
Selectivity ratio (HEK293 [3]): > 100

COCC(=O)O[C@]1(CCN(C)CCCc2nc3ccccc3[nH]2)CCc2cc(F)ccc2[C@@H]1C(C)C
inhibition [4]: 77.6%
